# Where two headings read alike, the source gives them in different places.
# How the values were obtained:
# FAAH [1] = target: T1, FAAH (Rattus norvegicus, UniProt P97612); test: FAAH assay: [3H]AEA hydrolysis by rat brain homogenates; assay type: biochemical; settings: for IC50: 0.5 µM [3H]AEA, rat brain homogenates; for increase in FAAH inhibitory activity versus Flu-AM1: IC50 compared with Flu-AM1; for FAAH potency versus flurbiprofen: IC50 compared with flurbiprofen
# T1 construct: rat or mouse brain homogenates as the enzyme source; from tissue; host or cells: rat brain (minus cerebellum), Wistar or Sprague-Dawley, washed membrane homogenate
# T1 sequence (P97612 1-579): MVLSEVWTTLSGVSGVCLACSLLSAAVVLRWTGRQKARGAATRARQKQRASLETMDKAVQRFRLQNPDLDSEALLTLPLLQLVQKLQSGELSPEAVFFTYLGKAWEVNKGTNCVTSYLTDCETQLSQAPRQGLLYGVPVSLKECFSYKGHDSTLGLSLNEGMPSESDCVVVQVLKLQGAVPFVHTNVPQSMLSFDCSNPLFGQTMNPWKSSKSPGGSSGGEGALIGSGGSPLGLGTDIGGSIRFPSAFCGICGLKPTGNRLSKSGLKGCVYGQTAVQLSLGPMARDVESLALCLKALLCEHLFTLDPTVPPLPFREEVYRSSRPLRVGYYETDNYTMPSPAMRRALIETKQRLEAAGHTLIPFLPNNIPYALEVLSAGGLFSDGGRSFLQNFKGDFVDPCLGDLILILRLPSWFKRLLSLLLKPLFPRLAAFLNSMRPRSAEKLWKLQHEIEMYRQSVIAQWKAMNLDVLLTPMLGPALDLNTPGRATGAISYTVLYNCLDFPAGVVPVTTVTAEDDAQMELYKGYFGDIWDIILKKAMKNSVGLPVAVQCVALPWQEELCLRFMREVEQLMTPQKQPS
# FAAH [2] = settings: cited from earlier work
# FAAH [3] = target: T1, FAAH; settings: shown for comparative purposes, cited from earlier work; for IC50: rat brain, read-out: IC50 for inhibition of rat brain AEA hydrolysis
# FAAH [4] = target: T2, FAAH (Mus musculus, UniProt O08914); test: FAAH assay: [3H]AEA hydrolysis by mouse brain homogenates; assay type: biochemical; settings: 0.5 µM [3H]AEA
# T2 construct: rat or mouse brain homogenates as the enzyme source; from tissue; host or cells: mouse brain (minus cerebellum), male B6CBAF1/J, washed membrane homogenate
# T2 sequence (O08914 1-579): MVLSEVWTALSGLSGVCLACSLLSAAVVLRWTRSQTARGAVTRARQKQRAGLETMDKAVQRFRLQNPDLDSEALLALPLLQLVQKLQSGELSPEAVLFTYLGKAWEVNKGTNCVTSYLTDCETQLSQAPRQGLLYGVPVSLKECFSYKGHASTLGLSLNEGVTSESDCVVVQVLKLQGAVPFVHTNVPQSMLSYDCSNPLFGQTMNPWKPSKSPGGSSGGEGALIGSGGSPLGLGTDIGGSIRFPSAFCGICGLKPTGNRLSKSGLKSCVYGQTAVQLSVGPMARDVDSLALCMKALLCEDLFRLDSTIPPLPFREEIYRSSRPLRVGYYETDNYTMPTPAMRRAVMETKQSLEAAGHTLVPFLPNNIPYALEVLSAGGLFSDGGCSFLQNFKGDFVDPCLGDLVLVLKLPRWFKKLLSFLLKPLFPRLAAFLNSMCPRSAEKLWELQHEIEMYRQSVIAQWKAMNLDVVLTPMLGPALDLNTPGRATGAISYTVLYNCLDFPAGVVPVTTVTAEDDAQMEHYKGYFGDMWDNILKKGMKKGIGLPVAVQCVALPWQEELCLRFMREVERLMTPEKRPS
# ovine COX-1 = system: T3, ovine COX-1; test: COX-1 inhibition, oxygen electrode assay; assay type: biochemical; settings: 10 µM compound, 10 µM arachidonic acid
# T3 construct: purchased Cayman Chemical Co. 60100
# Protocol: (§1) The assay was performed according to Meade et al.[58] with minor modifications. An oxygen electrode chamber with integral stirring (Oxygraph System, Hansatech Instruments, King’s Lynn, U.K.) was calibrated daily to ambient temperature and air pressure. The assay buffer contained 100 mM Tris-HCl buffer pH 7.4, 1 µM haematin, 2 mM phenol, 5 mM EDTA, 10 µM substrate (arachidonic acid or 2-AG) (final assay volume was 2 ml). After addition of Flu-AM4 dissolved in ethanol (final assay concentration 1%), a baseline was established for 5 min before initiation of reaction by addition of 200 units of either ovine COX-1 or human recombinant COX-2. The change in oxygen consumption as a measurement of enzyme activity was monitored for approximately 5 min.
# human recombinant COX-2 = system: T4, human recombinant COX-2; test: COX-2 inhibition, oxygen electrode assay; assay type: biochemical; settings: 10 µM compound, 10 µM 2-AG
# T4 construct: purchased Cayman Chemical Co. 60122
# Protocol: as §1, with “[…].)” for “King’s Lynn, U.K.)”, “μM” for “µM”
# CD1 male mice [5] = test: Formalin-evoked hind-paw licking; assay type: in vivo; settings: phase I and II
# Protocol: (§2) The behavioural experiments were performed on CD1 male mice (25–30 g Charles Rivers-Italy). They were housed in the animal care facility of the Department Experimental of Pharmacology, University of Naples. The animals were acclimated to their environment for 1 week and had ad libitum access to standard rodent chow pellets VRF1 (purchased from Special Diet Service-SDS). All behavioural tests were performed between 9:00 AM and 13:00 PM, and the animals were only used once. Procedures involving animals and their care were conducted in conformity with international and national law and policies (EU Directive 2010/63/EU for animal experiments). The procedures reported here were approved by the Institutional Committee on the Ethics of Animal Experiments (CSV) of the University of Naples “Federico II” and by the “Ministero della Salute”, protocol no. 2014–0084607. At the end of all experiments for all pain models, the animals were euthanized by CO2 overdose.
# (§3) During this study, Flu-AM4 was administered systemically (intraperitoneally) and locally (intraplantar 100 microg/paw). […]
# Mice received intraplantar injections of formalin in saline (10%,vol/vol; 10 µl/paw). Paw licking was monitored by an observer blind to the experimental treatment for periods of 0–15 min (early phase) and 15–60 min (late phase) immediately after formalin administration. […]
# CD1 male mice [6] = test: Carrageenan-induced paw oedema; assay type: in vivo; settings: 10 mg/kg ip, 5 min after carrageenan; p < 0.05
# Protocol: The behavioural experiments were performed on CD1 male mice (25–30 g Charles Rivers-Italy). They were housed in the animal care facility of the Department Experimental of Pharmacology, University of Naples. The animals were acclimated to their environment for 1 week and had ad libitum access to standard rodent chow pellets VRF1 (purchased from Special Diet Service-SDS). All behavioural tests were performed between 9:00 AM and 13:00 PM, and the animals were only used once. Procedures involving animals and their care were conducted in conformity with international and national law and policies (EU Directive 2010/63/EU for animal experiments). The procedures reported here were approved by the Institutional Committee on the Ethics of Animal Experiments (CSV) of the University of Naples “Federico II” and by the “Ministero della Salute”, protocol no. 2014–0084607. […]
# Paw edoema was induced by a subplantar injection of 0.1 ml of sterile saline containing 1% λ-carrageenan (Sigma Aldrich) into the right hind paw. Paw volumes were measured by a plethysmometer (Ugo Basile, Italy) at different times after the paw injection. The increase in paw volume was evaluated as the difference between the paw volume measured (Vm) at each time point (1, 2, 4, 6 and 48 h post carrageenan) and the basal paw volume (Vb) measured immediately before carrageenan injection (Δ volume = Vm – Vb).
# CD1 male mice [7] = test: Carrageenan-induced mechanical hyperalgesia (Randall-Selitto); assay type: in vivo; settings: 10 mg/kg ip, 5 min after carrageenan
# Protocol: as §2, §3
# Paw withdrawal threshold (PWT) to mechanical pressure was measured with a Randall-Selitto Analgesy-Meter for mice (Ugo Basile, Italy). PWT was measured on the ispsilateral paw at 1, 2, 4, 6 and 48 h post carrageenan injection. […]
# CD1 male mice [8] = test: CCI neuropathic pain model, mechanical allodynia (von Frey test); assay type: in vivo; settings: 1 h before test, day 7 and 14
# Protocol: as §2
# (§4) During this study, Flu-AM4 was administered systemically (intraperitoneally) and locally (intraplantar 100 microg/paw). For systemic administration, the compound was dissolved in PEG400 20% v/v, TWEEN 80 5% (v/v) and sterile saline and used at different doses (1–3–10 mg/kg). Vehicle group was only treated with PEG, TWEEN and sterile saline. For intraplantar administration Flu-AM4 was dissolved in PEG400 10% v/v, TWEEN 80 5% (v/v) and formalin 5% in sterile saline.
# (§5) Neuropathic pain was induced by ligation of the sciatic nerve as described previously. […] At day 7 and 14 Mechanical Allodynia (von Frey test) and Mechanical hyperalgesia (Randall-Selitto test) were assessed. […]
# To assess for changes in sensation or in the development of mechanical allodynia, sensitivity to tactile stimulation was measured using the Dynamic Plantar Aesthesiometer (DPA, Ugo Basile, Italy). […]
# CD1 male mice [9] = test: CCI neuropathic pain model, mechanical hyperalgesia (Randall-Selitto test); assay type: in vivo; settings: 1 h before test, day 7 and 14
# Protocol: as §2, §4
# Paw withdrawal threshold (PWT) to mechanical pressure was measured with a Randall-Selitto Analgesy-Meter for mice (Ugo Basile, Italy). PWT was measured on the ispsilateral paw at 1, 2, 4, 6 and 48 h post carrageenan injection. Each paw was tested twice per session. Cut-off force was set at 100 g.
# as §5
# iNOS = iNOS expression in the spinal cord of CCI-mice; assay type: in vivo; settings: 10 mg/kg ip, 1 h before
# COX-2 = COX-2 expression in the spinal cord of CCI-mice; assay type: in vivo; settings: 10 mg/kg ip, 1 h before
# NFκB-p65 = test: NF-κB-p65 expression in the spinal cord of CCI-mice; assay type: in vivo; settings: 10 mg/kg ip, 1 h before
# [10] = derived from pI50, read-out: IC50 for inhibition of rat brain AEA hydrolysis
# [11] = means ± s.e.m., n = 3–4, read-out: pI50 (-logIC50) for inhibition of rat brain AEA hydrolysis (converted)
structure (smiles),measurement,setting,value
"CC(C(=O)Nc1ncccc1Cl)c1ccc(-c2ccccc2)c(F)c1 (stereo not shown) [Flu-AM6, N-(3-Chloropyridin-2-yl)-2-(2-fluoro-(1,1'-biphenyl)-4-yl)propanamide]",IC50,FAAH [1]; [10],0.019 µM
same,IC50,FAAH [1]; [11],0.0191 µM
same,increase in FAAH inhibitory activity versus Flu-AM1,FAAH [1]; rat brain,approximately 20 fold
same,FAAH potency versus flurbiprofen,FAAH [1]; rat brain,more than three orders of magnitude greater than flurbiprofen
"CC(C(=O)Nc1ncccc1C(F)(F)F)c1ccc(-c2ccccc2)c(F)c1 (stereo not shown) [Flu-AM3, 2–(2-Fluoro-(1,1'-biphenyl)-4-yl)-N-(3-(trifluoromethyl)pyridin-2-yl)propanamide]",IC50,FAAH [1]; [10],0.11 µM
same,IC50,FAAH [1]; [11],0.11 µM
same,increase in FAAH inhibitory activity versus Flu-AM1,FAAH [1]; rat brain,about 4 fold
Cc1cccnc1NC(=O)C(C)c1ccc(CC(C)C)cc1 (stereo not shown) [Ibu-AM5],potency against FAAH versus ibuprofen,FAAH [2],2-3 orders of magnitude
Cc1cccnc1NC(=O)C(C)c1ccc(-c2ccccc2)c(F)c1 (stereo not shown) [Flu-AM1],IC50,FAAH [3],0.44 µM
same,pI50 (-logIC50) for inhibition of rat brain AEA hydrolysis,FAAH [3],6.36 ± 0.02
same,potency against FAAH versus flurbiprofen,FAAH [2],about 60 fold
CC(C(=O)O)c1ccc(-c2ccccc2)c(F)c1 (stereo not shown) [Flurbiprofen],IC50,FAAH [3],29 µM
same,pI50 (-logIC50) for inhibition of rat brain AEA hydrolysis,FAAH [3],4.53 ± 0.02
"CC(C(=O)Nc1ncccc1Br)c1ccc(-c2ccccc2)c(F)c1 (stereo not shown) [Flu-AM4, N-(3-Bromopyridin-2-yl)-2-(2-fluoro-(1,1'-biphenyl)-4-yl)propanamide]",IC50,FAAH [1]; [10],0.021 µM
same,IC50,FAAH [1]; [11],0.0214 µM
same,Ki,"FAAH [1]; rat brain [3H]AEA hydrolysis, competitive model",0.013 µM
same,increase in FAAH inhibitory activity versus Flu-AM1,FAAH [1]; rat brain,approximately 20 fold
same,FAAH potency versus flurbiprofen,FAAH [1]; rat brain,more than three orders of magnitude greater than flurbiprofen
same,mode of FAAH inhibition (kinetics),"FAAH [1]; rat brain, best fit by Akaike's criteria",competitive inhibition
same,reversibility of FAAH inhibition,"FAAH [1]; rat brain, preincubation and 20-fold dilution experiments",reversible inhibitor
same,potency towards rat brain FAAH versus mouse brain FAAH,FAAH [1]; rat vs mouse brain,an order of magnitude more potent towards rat brain FAAH than mouse brain FAAH
same,IC50,FAAH [4],0.43 µM
same,inhibition of cyclooxygenation of AA by COX-1,ovine COX-1,only partially inhibiting
same,inhibition of cyclooxygenation of 2-AG by COX-2,human recombinant COX-2,completely inhibited
same,"formalin-induced paw licking, local application","CD1 male mice [5]; 100 µg intraplantar, co-administered with formalin 5%, p < 0.001",reduced the paw licking time in both phases
same,"formalin-induced paw licking, systemic administration","CD1 male mice [5]; 10 mg/kg ip, 1 h before formalin, p < 0.001 vs vehicle",reduce the behavioural responses in both phases
same,carrageenan-induced paw oedema,CD1 male mice [6],reduced paw oedema at 2 and 4 h
same,carrageenan-induced paw hyperalgesia,CD1 male mice [7],reduce hyperalgesia seen 2 h after carrageenan
same,CCI-induced mechanical allodynia (Von Frey),CD1 male mice [8]; 1 mg/kg ip,did not show any effect
same,CCI-induced mechanical allodynia (Von Frey),CD1 male mice [8]; 3 mg/kg ip,showed efficacy only at the 14-day time point in both tests
same,CCI-induced mechanical allodynia (Von Frey),CD1 male mice [8]; 10 mg/kg ip,increased paw withdrawal latency in both test and in all experimental time
same,CCI-induced mechanical hyperalgesia (Randall-Selitto),CD1 male mice [9]; 1 mg/kg ip,did not show any effect
same,CCI-induced mechanical hyperalgesia (Randall-Selitto),CD1 male mice [9]; 3 mg/kg ip,showed efficacy only at the 14-day time point in both tests
same,CCI-induced mechanical hyperalgesia (Randall-Selitto),CD1 male mice [9]; 10 mg/kg ip,increased paw withdrawal latency in both test and in all experimental time
same,iNOS expression in the spinal cord,iNOS,significantly reduced this expression
same,COX-2 expression in the spinal cord,COX-2,significantly reduced this expression
same,NFκB-p65 expression in the spinal cord,NFκB-p65,significantly reduced this expression

# Source: publication PMC8079065, “Design, synthesis and in vitro and in vivo biological evaluation of flurbiprofen amides as new fatty acid amide hydrolase/cyclooxygenase-2 dual inhibitory potential analgesic agents” (Journal of Enzyme Inhibition and Medicinal Chemistry, 2021)
